Test results from ChEMBL document CHEMBL4393657, “Tetrazole hybrids and their antifungal activities” (2019).
In brackets after ≈: the same amount, converted by molar mass.

Experiments:
Type in all cases: functional
Cryptococcus neoformans = assay: Antifungal activity against Cryptococcus neoformans LA314 assessed as reduction in fungal cell growth incubated for 48 hrs by broth microdilution method; conditions: LA314, 48 h
Nakaseomyces glabratus = assay: Antifungal activity against Candida glabrata assessed as reduction in fungal cell growth incubated for 48 hrs by broth microdilution method
Candida parapsilosis = assay: Antifungal activity against Candida parapsilosis ATCC 22019 assessed as reduction in fungal cell growth incubated for 48 hrs by broth microdilution method; conditions: Lodderomyces parapsilosis, ATCC 22019, 48 h
Pichia kudriavzevii = assay: Antifungal activity against Candida krusei assessed as reduction in fungal cell growth incubated for 48 hrs by broth microdilution method
Candida albicans = assay: Antifungal activity against Candida albicans assessed as reduction in fungal cell growth incubated for 48 hrs by broth microdilution method
Candida tropicalis = assay: Antifungal activity against Candida tropicalis assessed as reduction in fungal cell growth incubated for 48 hrs by broth microdilution method
Aspergillus niger = assay: Antifungal activity against Aspergillus niger assessed as reduction in fungal cell growth incubated for 72 hrs by broth microdilution method

SMILES | MIC (Cryptococcus neoformans) [µg/mL] | MIC (Nakaseomyces glabratus) [µg/mL] | MIC (Candida parapsilosis) [µg/mL] | MIC (Pichia kudriavzevii) [µg/mL] | MIC (Candida albicans) [µg/mL] | MIC (Candida tropicalis) [µg/mL] | MIC (Aspergillus niger) [µg/mL]
COc1ccc(N2CCN(CCc3nnn([C@@H](C)[C@](O)(Cn4cncn4)c4ccc(F)cc4F)n3)CC2)cc1 | 0.25 to 16 (≈ 0.463 to 29.7 µM) | 0.25 to 16 (≈ 0.463 to 29.7 µM) | 0.25 to 16 (≈ 0.463 to 29.7 µM) | 0.25 to 16 (≈ 0.463 to 29.7 µM) | 0.25 to 16 (≈ 0.463 to 29.7 µM) | 0.25 to 16 (≈ 0.463 to 29.7 µM) | 0.25 to 16 (≈ 0.463 to 29.7 µM)
CCCCOc1ccccc1N1CCN(CCc2nnnn2CC(O)(Cn2cncn2)c2ccc(F)cc2F)CC1 (stereo unspecified) | 0.5 to 16 (≈ 0.881 to 28.2 µM) | 0.5 to 16 (≈ 0.881 to 28.2 µM) | 0.5 to 16 (≈ 0.881 to 28.2 µM) | 0.5 to 16 (≈ 0.881 to 28.2 µM) | 0.5 to 16 (≈ 0.881 to 28.2 µM) | 0.5 to 16 (≈ 0.881 to 28.2 µM) | 0.5 to 16 (≈ 0.881 to 28.2 µM)
OC(Cn1cncn1)(Cn1nnnc1CCN1CCN(c2ccc(F)cc2)CC1)c1ccc(F)cc1F (stereo unspecified) | 0.5 to 16 (≈ 0.974 to 31.2 µM) | 0.5 to 16 (≈ 0.974 to 31.2 µM) | 0.5 to 16 (≈ 0.974 to 31.2 µM) | 0.5 to 16 (≈ 0.974 to 31.2 µM) | 0.5 to 16 (≈ 0.974 to 31.2 µM) | 0.5 to 16 (≈ 0.974 to 31.2 µM) | 0.5 to 16 (≈ 0.974 to 31.2 µM)
OC(Cn1cncn1)(Cn1nnc(CCN2CCN(c3ccc(F)cc3)CC2)n1)c1ccc(F)cc1F (stereo unspecified) | 1 to 16 (≈ 1.95 to 31.2 µM) | 1 to 16 (≈ 1.95 to 31.2 µM) | 1 to 16 (≈ 1.95 to 31.2 µM) | 1 to 16 (≈ 1.95 to 31.2 µM) | 1 to 16 (≈ 1.95 to 31.2 µM) | 1 to 16 (≈ 1.95 to 31.2 µM) | 1 to 16 (≈ 1.95 to 31.2 µM)
OC(Cn1cncn1)(Cn1nnc(CCN2CCN(c3cccc(Cl)c3)CC2)n1)c1ccc(F)cc1F (stereo unspecified) | 1 to 16 (≈ 1.89 to 30.2 µM) | 1 to 16 (≈ 1.89 to 30.2 µM) | 1 to 16 (≈ 1.89 to 30.2 µM) | 1 to 16 (≈ 1.89 to 30.2 µM) | 1 to 16 (≈ 1.89 to 30.2 µM) | 1 to 16 (≈ 1.89 to 30.2 µM) | 1 to 16 (≈ 1.89 to 30.2 µM)
CC(n1nnnc1CCN1CCN(c2ccc(F)cc2)CC1)C(O)(Cn1cncn1)c1ccc(F)cc1F (stereo unspecified) | 0.5 to 16 (≈ 0.948 to 30.3 µM) | 0.5 to 16 (≈ 0.948 to 30.3 µM) | 0.5 to 16 (≈ 0.948 to 30.3 µM) | 0.5 to 16 (≈ 0.948 to 30.3 µM) | 0.5 to 16 (≈ 0.948 to 30.3 µM) | 0.5 to 16 (≈ 0.948 to 30.3 µM) | 0.5 to 16 (≈ 0.948 to 30.3 µM)
C[C@H](n1nnc(CCN2CCN(c3ccc(F)cc3)CC2)n1)[C@](O)(Cn1cncn1)c1ccc(F)cc1F | 0.25 to 16 (≈ 0.474 to 30.3 µM) | 0.25 to 16 (≈ 0.474 to 30.3 µM) | 0.25 to 16 (≈ 0.474 to 30.3 µM) | 0.25 to 16 (≈ 0.474 to 30.3 µM) | 0.25 to 16 (≈ 0.474 to 30.3 µM) | 0.25 to 16 (≈ 0.474 to 30.3 µM) | 0.25 to 16 (≈ 0.474 to 30.3 µM)
C[C@H](n1nnnc1CCN1CCN(c2ccccc2Cl)CC1)[C@](O)(Cn1cncn1)c1ccc(F)cc1F | 0.12 to 16 (≈ 0.221 to 29.4 µM) | 0.12 to 16 (≈ 0.221 to 29.4 µM) | 0.12 to 16 (≈ 0.221 to 29.4 µM) | 0.12 to 16 (≈ 0.221 to 29.4 µM) | 0.12 to 16 (≈ 0.221 to 29.4 µM) | 0.12 to 16 (≈ 0.221 to 29.4 µM) | 0.12 to 16 (≈ 0.221 to 29.4 µM)
OC(Cn1cncn1)(Cn1nnc(CCN2CCN(c3ccccc3Cl)CC2)n1)c1ccc(F)cc1F (stereo unspecified) | 1 to 16 (≈ 1.89 to 30.2 µM) | 1 to 16 (≈ 1.89 to 30.2 µM) | 1 to 16 (≈ 1.89 to 30.2 µM) | 1 to 16 (≈ 1.89 to 30.2 µM) | 1 to 16 (≈ 1.89 to 30.2 µM) | 1 to 16 (≈ 1.89 to 30.2 µM) | 1 to 16 (≈ 1.89 to 30.2 µM)
C[C@H](n1nnnc1CCN1CCN(c2ccc([N+](=O)[O-])cc2)CC1)[C@](O)(Cn1cncn1)c1ccc(F)cc1F | 0.12 to 16 (≈ 0.216 to 28.9 µM) | 0.12 to 16 (≈ 0.216 to 28.9 µM) | 0.12 to 16 (≈ 0.216 to 28.9 µM) | 0.12 to 16 (≈ 0.216 to 28.9 µM) | 0.12 to 16 (≈ 0.216 to 28.9 µM) | 0.12 to 16 (≈ 0.216 to 28.9 µM) | 0.12 to 16 (≈ 0.216 to 28.9 µM)

Further lines, results first:

MIC (Cryptococcus neoformans) [µg/mL] | MIC (Nakaseomyces glabratus) [µg/mL] | MIC (Candida parapsilosis) [µg/mL] | MIC (Pichia kudriavzevii) [µg/mL] | MIC (Candida albicans) [µg/mL] | MIC (Candida tropicalis) [µg/mL] | MIC (Aspergillus niger) [µg/mL] | SMILES
0.5 to 16 (≈ 0.834 to 26.7 µM) | 0.5 to 16 (≈ 0.834 to 26.7 µM) | 0.5 to 16 (≈ 0.834 to 26.7 µM) | 0.5 to 16 (≈ 0.834 to 26.7 µM) | 0.5 to 16 (≈ 0.834 to 26.7 µM) | 0.5 to 16 (≈ 0.834 to 26.7 µM) | 0.5 to 16 (≈ 0.834 to 26.7 µM) | CC(n1nnnc1CCN1CCN(C(c2ccccc2)c2ccccc2)CC1)C(O)(Cn1cncn1)c1ccc(F)cc1F (stereo unspecified)
0.12 to 16 (≈ 0.206 to 27.5 µM) | 0.12 to 16 (≈ 0.206 to 27.5 µM) | 0.12 to 16 (≈ 0.206 to 27.5 µM) | 0.12 to 16 (≈ 0.206 to 27.5 µM) | 0.12 to 16 (≈ 0.206 to 27.5 µM) | 0.12 to 16 (≈ 0.206 to 27.5 µM) | 0.12 to 16 (≈ 0.206 to 27.5 µM) | CCCCOc1ccccc1N1CCN(CCc2nnnn2[C@@H](C)[C@](O)(Cn2cncn2)c2ccc(F)cc2F)CC1
0.5 to 16 (≈ 0.902 to 28.9 µM) | 0.5 to 16 (≈ 0.902 to 28.9 µM) | 0.5 to 16 (≈ 0.902 to 28.9 µM) | 0.5 to 16 (≈ 0.902 to 28.9 µM) | 0.5 to 16 (≈ 0.902 to 28.9 µM) | 0.5 to 16 (≈ 0.902 to 28.9 µM) | 0.5 to 16 (≈ 0.902 to 28.9 µM) | CC(n1nnnc1CCN1CCN(c2ccc([N+](=O)[O-])cc2)CC1)C(O)(Cn1cncn1)c1ccc(F)cc1F (stereo unspecified)
0.5 to 16 (≈ 0.951 to 30.4 µM) | 0.5 to 16 (≈ 0.951 to 30.4 µM) | 0.5 to 16 (≈ 0.951 to 30.4 µM) | 0.5 to 16 (≈ 0.951 to 30.4 µM) | 0.5 to 16 (≈ 0.951 to 30.4 µM) | 0.5 to 16 (≈ 0.951 to 30.4 µM) | 0.5 to 16 (≈ 0.951 to 30.4 µM) | COc1ccc(N2CCN(CCc3nnnn3CC(O)(Cn3cncn3)c3ccc(F)cc3F)CC2)cc1 (stereo unspecified)
1 to 16 (≈ 1.73 to 27.7 µM) | 1 to 16 (≈ 1.73 to 27.7 µM) | 1 to 16 (≈ 1.73 to 27.7 µM) | 1 to 16 (≈ 1.73 to 27.7 µM) | 1 to 16 (≈ 1.73 to 27.7 µM) | 1 to 16 (≈ 1.73 to 27.7 µM) | 1 to 16 (≈ 1.73 to 27.7 µM) | CC(n1nnc(CCN2CCN(c3c(Cl)cccc3Cl)CC2)n1)C(O)(Cn1cncn1)c1ccc(F)cc1F (stereo unspecified)
0.25 to 16 (≈ 0.451 to 28.9 µM) | 0.25 to 16 (≈ 0.451 to 28.9 µM) | 0.25 to 16 (≈ 0.451 to 28.9 µM) | 0.25 to 16 (≈ 0.451 to 28.9 µM) | 0.25 to 16 (≈ 0.451 to 28.9 µM) | 0.25 to 16 (≈ 0.451 to 28.9 µM) | 0.25 to 16 (≈ 0.451 to 28.9 µM) | C[C@H](n1nnc(CCN2CCN(c3ccc([N+](=O)[O-])cc3)CC2)n1)[C@](O)(Cn1cncn1)c1ccc(F)cc1F
1 to 16 (≈ 1.84 to 29.4 µM) | 1 to 16 (≈ 1.84 to 29.4 µM) | 1 to 16 (≈ 1.84 to 29.4 µM) | 1 to 16 (≈ 1.84 to 29.4 µM) | 1 to 16 (≈ 1.84 to 29.4 µM) | 1 to 16 (≈ 1.84 to 29.4 µM) | 1 to 16 (≈ 1.84 to 29.4 µM) | CC(n1nnc(CCN2CCN(c3cccc(Cl)c3)CC2)n1)C(O)(Cn1cncn1)c1ccc(F)cc1F (stereo unspecified)
0.5 to 16 (≈ 0.955 to 30.6 µM) | 0.5 to 16 (≈ 0.955 to 30.6 µM) | 0.5 to 16 (≈ 0.955 to 30.6 µM) | 0.5 to 16 (≈ 0.955 to 30.6 µM) | 0.5 to 16 (≈ 0.955 to 30.6 µM) | 0.5 to 16 (≈ 0.955 to 30.6 µM) | 0.5 to 16 (≈ 0.955 to 30.6 µM) | CC(n1nnnc1CCN1CCN(Cc2ccccc2)CC1)C(O)(Cn1cncn1)c1ccc(F)cc1F (stereo unspecified)
